Values of other authors as cited in patent US20220395469A1, “TRANSDERMAL DRUG DELIVERY SYSTEM FOR KETAMINE” (GUANGZHOU DAZHOU BIOMEDICINE LTD., priority 2017, published 2022).

Columns and labels:
NMDA receptor = settings: in vitro
[1] = not given; remark: listed apart in the source
[2] = three-compartment model, 70-kg human (Fanta et al.)

For `CNC1(c2ccccc2Cl)CCCCC1=O` (centres unmarked) [ketamine], the absolute oral bioavailability (in humans) is given as 10-20%, the “systemic (primarily hepatic) clearance” value (in vivo) is given as “about 19 ml/min·kg” and the V1 [2] is given as 133 L. The clearance [2] was 79.8 L/h, the “micro constant k12” value [2] was 0.174 h⁻¹ and the “micro constant k13” value [2] was 1.18 h⁻¹. The “micro constant k21” value [2] was 0.124 h⁻¹ and the “micro constant k31” value [2] was 1.59 h⁻¹.

In the case of `CN[C@]1(c2ccccc2Cl)CCCCC1=O` [S-ketamine], the “affinity on NMDA receptor binding relative to R-ketamine” value (NMDA receptor) is listed as ~4 fold.

For `CN[C@@]1(c2ccccc2Cl)CCCCC1=O` [R-ketamine], the “psychotomimetic side effects and abuse liability” value ([1]; Yang et al.) is listed as “free of psychotomimetic side effects and abuse liability” and the antidepressant effectiveness ([1]; animal model studies, versus S-ketamine (Yang et al.)) is listed as “more effective as an antidepressant than S-ketamine”.
